Reference: patent US20080261994A1, “CYCLOPROPANE COMPOUNDS AND PHARMACEUTICAL USE THEREOF” (Japan Tobacco Inc., priority 2003, published 2008)
Read-outs that look alike come from different tables or passages of the source.

Tests used:
Assay type in all cases: biochemical
aggrecanase-1 = target: T1, aggrecanase-1 (Homo sapiens, UniProt O75173); test: Aggrecanase-1 inhibitory action (Particle Assay, GAG release from aggrecan-containing polyacrylamide particles)
T1 sequence (O75173 213-837): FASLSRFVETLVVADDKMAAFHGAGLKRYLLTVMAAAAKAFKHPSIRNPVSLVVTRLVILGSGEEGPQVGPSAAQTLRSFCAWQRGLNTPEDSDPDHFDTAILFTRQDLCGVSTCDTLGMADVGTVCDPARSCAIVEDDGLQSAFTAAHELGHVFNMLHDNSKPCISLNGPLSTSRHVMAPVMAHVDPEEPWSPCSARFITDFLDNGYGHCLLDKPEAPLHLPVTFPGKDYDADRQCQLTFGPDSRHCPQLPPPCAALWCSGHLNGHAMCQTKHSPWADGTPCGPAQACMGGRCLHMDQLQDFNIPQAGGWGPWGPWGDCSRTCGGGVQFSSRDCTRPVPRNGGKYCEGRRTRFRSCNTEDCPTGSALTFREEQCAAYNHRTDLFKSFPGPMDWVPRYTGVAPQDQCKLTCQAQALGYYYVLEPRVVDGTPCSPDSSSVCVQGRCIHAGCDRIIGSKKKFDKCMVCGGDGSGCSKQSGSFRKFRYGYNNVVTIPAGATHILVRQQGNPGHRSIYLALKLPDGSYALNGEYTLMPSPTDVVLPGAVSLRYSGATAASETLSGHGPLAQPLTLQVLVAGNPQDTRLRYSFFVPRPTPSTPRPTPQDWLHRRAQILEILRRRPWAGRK
Summary of the method: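 Enzyme and compound incubated with aggrecan-containing polyacrylamide particles in Tris-HCl buffer at 37° C for 15 h. Released GAG in supernatant measured with 1,9-dimethylmethylene blue at 595 nm against chondroitin sulfate standard; % inhibition from enzyme-free and inhibitor-free wells, reported as TC50 (μM).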

MMP-1 = target: T2, MMP-1 (Homo sapiens, UniProt P03956); test: MMP-1 inhibitory action (Type I collagen Activity Measurement kit, FITC-labeled collagen type I)
T2 sequence (P03956 100-469): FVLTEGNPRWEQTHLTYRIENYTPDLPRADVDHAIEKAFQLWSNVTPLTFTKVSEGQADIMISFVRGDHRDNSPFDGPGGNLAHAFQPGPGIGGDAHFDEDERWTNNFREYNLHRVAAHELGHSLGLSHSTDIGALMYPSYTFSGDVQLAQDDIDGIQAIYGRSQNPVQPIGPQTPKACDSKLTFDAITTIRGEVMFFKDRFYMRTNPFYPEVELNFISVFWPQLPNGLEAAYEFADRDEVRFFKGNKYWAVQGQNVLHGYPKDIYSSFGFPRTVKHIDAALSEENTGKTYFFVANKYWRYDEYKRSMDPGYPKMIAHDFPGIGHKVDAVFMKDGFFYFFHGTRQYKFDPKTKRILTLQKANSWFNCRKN

Recombinant Human MMP-13 = target: T3, Recombinant Human MMP-13 (Homo sapiens, UniProt P45452); test: MMP-13 inhibitory activity (MMP-13 specific fluorescent substrate with quencher)
T3 construct: purchased R&D systems 511-MM
Summary of the method: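 Recombinant human MMP-13 with test compound, reaction started with quenched fluorogenic peptide 7-MCA-Pro-CHA-Gly-NVal-His-Ala-DPA in Tris-HCl buffer, 1 h at 25 °C, stopped with acetic acid. Fluorescence at Ex 325/Em 405 nm; % inhibition versus enzyme-free and inhibitor-free wells, reported as IC50 (μM).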

[1] = aggrecanase-1 inhibitory action, read-out: IC50 AG1 (Experimental Example 1)
[2] = MMP-1 inhibitory action, FITC-labeled collagen type I, 37° C. for 3 hr, read-out: IC50 MMP1 (Experimental Example 2)
[3] = Recombinant Human MMP-13, fluorescent substrate, 25° C. for 1 h, read-out: IC50 MMP13 (Experimental Example 3)
[4] = Experimental Example 1, read-out: IC50 AG1
[5] = Experimental Example 2, read-out: IC50 MMP1
[6] = Experimental Example 3, read-out: IC50 MMP13

IC50 (aggrecanase-1; [1]) [nM] | IC50 (MMP-1; [2]) [nM] | IC50 (Recombinant Human MMP-13; [3]) [nM] | IC50 (aggrecanase-1; [4]) [nM] | IC50 (MMP-1; [5]) [nM] | IC50 (Recombinant Human MMP-13; [6]) [nM] | SMILES
– | – | – | < 100 | ≥ 1000 | < 100 | C[C@]1(c2ccccc2)C[C@@]1(NS(=O)(=O)c1ccc(-c2ccc(Cl)c(CO)c2)s1)C(=O)O [Example 2-564]
< 100 | ≥ 1000 | < 100 | – | – | – | O=C(CCc1cccc(C2CC2(NS(=O)(=O)c2ccc(-c3cc(C(F)(F)F)on3)s2)C(=O)O)c1)N1CCOCC1 (stereo not drawn) [Example 2-234]
– | – | – | < 1000 | < 1000 | < 100 | C[C@]1(c2ccccc2)C[C@@]1(NS(=O)(=O)c1ccc(-c2ccc(CO)cc2)s1)C(=O)O [Example 2-574]
– | – | – | < 100 | < 1000 | < 100 | CNC(=O)CCc1ccc([C@H]2C[C@@]2(NS(=O)(=O)c2ccc(-c3cc(C(F)(F)F)on3)s2)C(=O)O)cc1 [Example 2-281]
– | – | – | < 100 | < 1000 | < 1000 | CC1(c2ccc(Cl)cc2)CC1(NS(=O)(=O)c1ccc(-c2cc(C(F)(F)F)on2)s1)C(=O)O (stereo not drawn) [Example 2-608]
– | – | – | < 1000 | ≥ 1000 | ≥ 1000 | CC1(c2cccnc2)CC1(NS(=O)(=O)c1ccc(-c2cc(C(F)(F)F)on2)s1)C(=O)O (stereo not drawn) [Example 2-617]
– | – | – | < 1000 | ≥ 1000 | < 1000 | Cc1cc(C2CC2(NS(=O)(=O)c2ccc(-c3cc(C(F)(F)F)on3)s2)C(=O)O)no1 (stereo not drawn) [Example 2-313]
– | – | – | < 1000 | ≥ 1000 | < 1000 | COCCOCC1(c2ccccc2)CC1(NS(=O)(=O)c1ccc(-c2ccc(Cl)cc2)s1)C(=O)O (stereo not drawn) [Example 2-429]
– | – | – | < 1000 | ≥ 10000 | < 100 | CCOC(=O)NCC1(c2ccccc2)CC1(NS(=O)(=O)c1ccc(-c2ccc(Cl)cc2)s1)C(=O)O (stereo not drawn) [Example 2-384]
– | – | – | < 1000 | ≥ 1000 | < 1000 | O=C(NCCO)OCC1(c2ccccc2)CC1(NS(=O)(=O)c1ccc(-c2cc(C(F)(F)F)on2)s1)C(=O)O (stereo not drawn) [Example 2-333]
– | – | – | < 1000 | ≥ 1000 | < 1000 | O=C(NC1CC1)OCC1(c2ccccc2)CC1(NS(=O)(=O)c1ccc(-c2cc(C(F)(F)F)on2)s1)C(=O)O (stereo not drawn) [Example 2-331]
– | – | – | < 1000 | ≥ 1000 | < 1000 | NC(=O)OCC1(c2ccccc2)CC1(NS(=O)(=O)c1ccc(-c2cc(C(F)(F)F)on2)s1)C(=O)O (stereo not drawn) [Example 2-335]
– | – | – | < 1000 | < 1000 | < 100 | CCC1[C@@H](c2ccccc2)[C@@]1(NS(=O)(=O)c1ccc(-c2cc(C(F)(F)F)on2)s1)C(=O)O (stereo partly drawn) [Example 2-327]
< 100 | < 1000 | < 100 | – | – | – | C[C@]1(c2ccccc2)C[C@@]1(NS(=O)(=O)c1ccc(-c2ccc(Cl)c(N)c2)s1)C(=O)O [Example 2-12, (1S,2R)-1-[5-(3-amino-4-chloro-phenyl)-thiophene-2-sulfonylamino]-2-methyl-2-phenyl-cyclopropanecarboxylic acid]
– | – | – | < 100 | < 1000 | < 1000 | CC1(c2ccccc2Cl)CC1(NS(=O)(=O)c1ccc(-c2cc(C(F)(F)F)on2)s1)C(=O)O (stereo not drawn) [Example 2-616]
– | – | – | ≥ 1000 | ≥ 10000 | ≥ 1000 | C[C@]1(c2ccccc2)C[C@@]1(NS(=O)(=O)c1ccc(-c2ccc(Cl)c([N+](=O)[O-])c2)s1)C(=O)O [Example 2-477]
< 100 | < 1000 | < 100 | – | – | – | O=C(O)C1(NS(=O)(=O)c2ccc(-c3cc(C(F)(F)F)on3)s2)CC1c1cccc(NCc2cccnc2)c1 (stereo not drawn) [Example 2-213]

The remaining lines, values behind:

SMILES | IC50 (aggrecanase-1; [1]) [nM] | IC50 (MMP-1; [2]) [nM] | IC50 (Recombinant Human MMP-13; [3]) [nM] | IC50 (aggrecanase-1; [4]) [nM] | IC50 (MMP-1; [5]) [nM] | IC50 (Recombinant Human MMP-13; [6]) [nM]
CC(C)C1(c2ccccc2)CC1(NS(=O)(=O)c1ccc(-c2ccc(Cl)cc2)s1)C(=O)O (stereo not drawn) [Example 2-123] | < 1000 | ≥ 10000 | < 1000 | – | – | –
O=C(Cc1ccccc1C1CC1(NS(=O)(=O)c1ccc(-c2ccc(Cl)cc2)s1)C(=O)O)N1CCOCC1 (stereo not drawn) [Example 2-194] | < 1000 | ≥ 10000 | < 1000 | – | – | –
CC1[C@H](c2ccccc2)[C@]1(NS(=O)(=O)N1CCN(C(=O)OCc2ccccc2)CC1)C(=O)O (stereo partly drawn) [Example 2-532] | – | – | – | ≥ 1000 | ≥ 1000 | ≥ 1000
O=C(O)[C@]1(NS(=O)(=O)c2ccc(-c3cc(C(F)F)on3)cc2)C[C@@H]1c1ccccc1 [Example 2-152] | < 1000 | ≥ 10000 | < 100 | – | – | –
COC(=O)c1ccccc1C1CC1(NS(=O)(=O)c1ccc(-c2ccc(Cl)cc2)s1)C(=O)O (stereo not drawn) [Example 2-205] | < 100 | ≥ 10000 | < 1000 | – | – | –
CC(C)Nc1ccc2c(c1)CN(S(=O)(=O)N[C@@]1(C(=O)O)C(C)[C@@H]1c1ccccc1)C2 (stereo partly drawn) [Example 2-552] | – | – | – | ≥ 1000 | ≥ 1000 | < 1000
CC1[C@H](c2ccccc2)[C@]1(NS(=O)(=O)N1CCCN(c2ccc(F)cn2)CC1)C(=O)O (stereo partly drawn) [Example 2-462] | – | – | – | < 1000 | ≥ 1000 | ≥ 1000
C[C@]1(c2ccccc2)C[C@@]1(NS(=O)(=O)c1ccc(N2CCOCC2)s1)C(=O)O [Example 2-421] | – | – | – | ≥ 1000 | ≥ 10000 | ≥ 1000
CC1C(c2ccccc2)C1(NS(=O)(=O)c1ccc(-c2ccc(Cl)cc2)s1)C(=O)O (stereo not drawn) [Example 2-237] | < 100 | ≥ 1000 | < 100 | – | – | –
O=C(NO)[C@]1(NS(=O)(=O)c2ccc(OCc3ccc(Cl)cc3Cl)cc2)[C@@H]2c3ccccc3C[C@@H]21 (relative stereo) [Example 2-13, (1R*,1aS*,6aS*)-1-[4-(2,4-dichloro-benzyloxy)-benzenesulfonylamino]-1,1a,6,6a-tetrahydro-cyclopropa[a]inden-1-carboxylic acid hydroxyamide] | < 100 | ≥ 10000 | < 100 | – | – | –
O=C(O)[C@]1(NS(=O)(=O)c2ccc(-c3cc(CF)on3)cc2)C[C@@H]1c1ccccc1 [Example 2-137] | ≥ 1000 | < 1000 | < 100 | – | – | –
O=C(O)[C@]1(NS(=O)(=O)c2ccc(-c3noc4c3CCCC4)s2)C[C@@H]1c1ccccc1 [Example 2-154] | ≥ 1000 | ≥ 10000 | < 1000 | – | – | –
CC1[C@H](c2ccccc2)[C@]1(NS(=O)(=O)c1cn2cc(Cn3cc(Cl)cn3)nc2s1)C(=O)O (stereo partly drawn) [Example 2-520] | – | – | – | ≥ 1000 | ≥ 1000 | ≥ 1000
Cc1cnc(N2CCN(S(=O)(=O)N[C@@]3(C(=O)O)C(C)[C@@H]3c3ccccc3)CC2)s1 (stereo partly drawn) [Example 2-484] | – | – | – | ≥ 1000 | ≥ 10000 | < 1000
O=C(O)C1(NS(=O)(=O)N2CC=C(c3ccccc3)CC2)CC1c1ccccc1 (stereo not drawn) [Example 2-148] | ≥ 1000 | ≥ 10000 | < 1000 | – | – | –
Cn1cc(-c2ccc(S(=O)(=O)N[C@@]3(C(=O)O)C[C@@H]3c3ccccc3)s2)cn1 [Example 2-387] | – | – | – | ≥ 1000 | ≥ 10000 | < 1000
COc1ccc(N2CCN(S(=O)(=O)NC3(C(=O)O)CC3c3ccccc3)CC2)cc1 (stereo not drawn) [Example 2-64] | ≥ 10000 | ≥ 10000 | ≥ 1000 | – | – | –
COc1cnn(-c2ccc(S(=O)(=O)N[C@@]3(C(=O)O)C(C)[C@@H]3c3ccccc3)s2)c1 (stereo partly drawn) [Example 2-492] | – | – | – | < 100 | < 100 | < 100
O=C(CCc1cccc(C2CC2(NS(=O)(=O)c2ccc(-c3ccc(Cl)cc3)s2)C(=O)O)c1)N1CCSCC1 (stereo not drawn) [Example 2-211] | < 100 | ≥ 10000 | < 100 | – | – | –
CC(C)(C)OC(=O)Nc1ccccc1C1CC1(NS(=O)(=O)c1ccc(-c2ccc(Cl)cc2)s1)C(=O)O (stereo not drawn) [Example 2-217] | < 1000 | ≥ 10000 | < 1000 | – | – | –
C=CC1CC1(NS(=O)(=O)c1ccc(-c2ccc(Cl)cc2)s1)C(=O)O (stereo not drawn) [Example 2-46] | ≥ 1000 | ≥ 10000 | ≥ 1000 | – | – | –
